From patent publication US20040157799A1, “Pharmaceutical uses of bisphosphonates” (priority 2004, published 2004)

Assays:
[1] = system: prostate cancer patients with a history of metastatic bone disease; assay: double-blind, placebo-controlled clinical study of zoledronic acid: skeletal-related events; type: in vivo, human; conditions: for patients with at least one skeletal-related event: i.v. every 3 weeks, placebo 44.2% (N=208); for patients with pathologic fractures: placebo 22.1%; for median time to the first skeletal-related event: placebo 320 days
Text: Skeletal-related events (SREs) are defined as pathologic bone fracture events, spinal cord compression events, surgery to bone, radiation therapy to bone (including the use of radioisotopes) and a change of antineoplastic therapy to treat bone pain. Thus, SREs are the primary end-points in this study. The key efficacy endpoints are the proportion of patients having at least one SRE and the time to first SRE.
Secondary objectives are to assess the effect of zoledronic acid therapy on pain scores, analgesic use, performance status, Quality of Life scores, time to termination of active study participation, and to assess the safety and tolerability of zoledronate. Changes in bone resorption and formation markers are also evaluated. Bone mineral density measurements are evaluated in patients at selected clinical centers. In addition, time to progression of disease in bone and time to overall progression of disease are evaluated.
This study is an international, multicenter, randomized, double-blind, placebo-controlled, parallel study. […] The rising serum PSA level is documented by three consecutively rising serum PSA measurements (i.e., the third PSA level is to be>the second PSA level which is >the first PSA level which is >the nadir serum PSA concentration achieved during first-line hormonal therapy for metastatic prostate cancer), each separated from the other by at least two weeks. The rising serum PSA level represents an “early” event in the development of progressive metastatic disease.
Patients are randomized in a double-blind fashion to receive either zoledronate 4 mg intravenously, or zoledronate 8 mg intravenously, or a placebo intravenous infusion every three weeks in addition to their antineoplastic therapy. The randomized treatment assignment ratio is to be 1:1:1. In addition, all patients are to receive 500 mg of calcium orally and a multivitamin tablet (containing 400-500 I.U. of vitamin D) daily throughout the study.
The occurrence of skeletal-related events (SRE's) is collected throughout the trial for each patient in order to determine the proportion of patients experiencing at least one SRE, the time to the first SRE, and the skeletal morbidity rate (see section 4). Time to progression of disease in bone is assessed centrally (central radiologist) by review of serial bone radiographic studies. Time to overall progression of disease is determined by the patient's treating physician: by evaluating the central assessments (central radiologist) of serial bone radiographic studies; by evaluating the central assessments (central radiologist) of appropriate serial radiographic studies of non-skeletal tumor sites, if present; by evaluating serial serum PSA levels; and by evaluating serial patient weight measurements. Quality of Life, performance status, health care utilization and productivity loss data, and pain, and analgesic use scores are determined serially throughout the study. This information is also collected for those patients who discontinue active therapy within 24 months from the date of randomization into the study. Information about adverse events which occur during the patient's clinical course is collected throughout the study.
The study is made up of two phases, phase 1, the Efficacy and Safety Phase, and phase 2, the Extension Phase. The primary efficacy analysis is performed at the completion of phase 1, the Efficacy and Safety Phase, which consists of 60 weeks (20 cycles) of study treatment. Phase 2 consists of an additional 36 weeks (12 cycles) of study therapy. The primary purpose of phase 2 is to obtain long-term zoledronate treatment safety and survival data, however efficacy data will continue to be collected. […] No interim analyses are planned. […]

[2] = system: prostate cancer cell lines; conditions: in vitro treatment (Brown et al.; Lee et al.); cited from earlier work
[3] = system: subcutaneous prostate cancer cell line tumours; conditions: subcutaneous prostate cancer cell line tumours (Corey et al.); cited from earlier work

SMILES: O=P(O)(O)C(O)(Cn1ccnc1)P(=O)(O)O [zoledronic acid, 2-(imidazol-1yl)-1-hydroxyethane-1,1-diphosphonic acid]
- effect on skeletal-related events ([1]; 4 mg 15-minute infusions every 3 weeks, metastatic prostate cancer refractory to hormonal therapy): significantly reduce skeletal-related events
- tolerability ([1]; 4 mg given as a 15-minute infusion): well-tolerated
- efficacy in the treatment of bone metastases vs. placebo ([1]; prostate cancer patients, double blind, placebo-controlled): statistically significant efficacy benefit over placebo
- patients with at least one skeletal-related event ([1]; zoledronic acid 4 mg group (N=214), p=0.021 vs. placebo): 33.2%
- patients with pathologic fractures ([1]; zoledronic acid 4 mg group, p=0.015 vs. placebo): 13.1%
- median time to the first skeletal-related event ([1]; zoledronic acid 4 mg group, p=0.011 vs. placebo): not reached
- patients with at least one skeletal-related event ([1]; zoledronic acid 8/4 mg group (N=221), p=0.222 vs. placebo): 38.5%
- patients with pathologic fractures ([1]; zoledronic acid 8/4 mg group, p=0.054 vs. placebo): 14.9%
- median time to the first skeletal-related event ([1]; zoledronic acid 8/4 mg group, p=0.491 vs. placebo): 363 days
- growth of prostate cancer cell lines [2]: significantly reduced the growth of the cell lines
- tumour volume [3]: no significant decrease in tumour volume
